The record followed here is patent publication US10981932B2, “Macrocyclic indole derivatives” (Bayer Aktiengesellschaft, priority 2016, dated 2021).

The subject of data set [1] is SUDHL5. Nature of the data set: Induction of caspase-3/7 activity (Caspase-Glo 3/7), SUDHL5. Format: cell-based. The conditions noted are these: caspase-3/7 induction, SUDHL5 cells, 3 h treatment, median. Summed up: (§1)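 Caspase-Glo 3/7 luminescence measured after 3 h compound exposure at 37 °C in SUDHL10 and SUDHL5 cells. EC50 values come from background-corrected signals, with curve bottom set to 1 and plateau set to maximal induction by the reference compound.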

For data set [2], the system named is SUDHL10. The data set can be described thus: Anti-proliferative effect (CellTiter-Glo, 72 h), SUDHL10. Format: cell-based. Conditions: SUDHL10 cells, antiproliferation, 72 h incubation, median, read-out: Antiproli SUDHL10 [M] (median). Put shortly: (§2)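 CellTiter-Glo luminescence readout of viability, taken on a time-zero plate at day 0 and on treated plates after 72 h incubation at 37 °C in a humidified incubator. Reagent incubation 10 min before reading.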
On the technique in general: Cellular ATP, detected with luciferase, serves as a proxy for viable cell number.

Data set [3] relates to SUDHL10. The data set can be described thus: Induction of caspase-3/7 activity (Caspase-Glo 3/7), SUDHL10. Format: cell-based. Conditions: caspase-3/7 induction, SUDHL10 cells, 3 h treatment, median. Put shortly: as §1
In data set [4] the test system is OPM2. The data set can be described thus: Anti-proliferative effect (CellTiter-Glo, 72 h), OPM2. Format: cell-based. The conditions noted are these: OPM2 cells, median, read-out: IC50 antiproliferation assay OPM2 [M] (median). Put shortly: as §2
The test system of data set [5] is SUDHL5. Nature of the data set: Anti-proliferative effect (CellTiter-Glo, 72 h), SUDHL5. Format: cell-based. The conditions noted are these: SUDHL5 cells, antiproliferation, 72 h incubation, median, read-out: Antiproli SUDHL5 [M] (median). Put shortly:
as §2

For data set [6], the system named is SUDHL5. The data set can be described thus: Induction of cytotoxicity (CellTiter-Glo, 5 h), SUDHL5.
Data set [7] has as its target MCL-1 (Homo sapiens, UniProt Q07820). The data set can be described thus: Protein-protein interaction assay MCL-1/Noxa BH3 peptide (MCL-1 assay), TR-FRET. Format: binding. Conditions: MBP-MCL-1 / Noxa BH3-derived peptide, median. Put shortly: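 MBP-MCL-1 (1 nM final) was preincubated 10 min at 22 °C with compounds (11 concentrations, 0.1 nM–20 μM, duplicates) in Tris pH 7 buffer with NaCl, KF, Tween-20, DTT and BGG. After 1 h at 22 °C in the dark plus overnight at 4 °C, anti-MBP Eu-cryptate/streptavidin-XL665 TR-FRET was read; IC50 came from a 4-parameter fit.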
A general note: TR-FRET usually uses a lanthanide donor and a delayed reading to cut background.

Data set [8] has as its system MV-4-11. Nature of the data set: Anti-proliferative effect (CellTiter-Glo, 72 h), MV-4-11. Format: cell-based. Conditions: MV-4-11 cells, median, read-out: IC50 antiproliferation assay MV-4-11 [M] (median). Put shortly: as §2
In data set [9] the test system is SUDHL10. Nature of the data set: Induction of cytotoxicity (CellTiter-Glo, 5 h), SUDHL10.
In data set [10] the test system is A2780. Nature of the data set: Anti-proliferative effect (CellTiter-Glo, 72 h), A2780. Format: cell-based. The conditions noted are these: A2780 cells, median, read-out: IC50 antiproliferation assay A2780 [M] (median). Summed up:
as §2

Setting [11] is: Homo sapiens, SU-DHL-5, 5 h, read-out: Cytotox SUDHL5 [M] (median), SUDHL5 cells, cytotoxicity induction, CellTiter-Glo, 5 h incubation, median.
Setting [12] is: Homo sapiens, SU-DHL10, 5 h, read-out: Cytotox SUDHL10 [M] (median), SUDHL10 cells, cytotoxicity induction, CellTiter-Glo, 5 h incubation, median.
Where [13] appears, read: read-out: Cytotox SUDHL5 [M] (median), SUDHL5 cells, cytotoxicity induction, CellTiter-Glo, 5 h incubation, median.
Setting [14] is: read-out: Cytotox SUDHL10 [M] (median), SUDHL10 cells, cytotoxicity induction, CellTiter-Glo, 5 h incubation, median.

A word on the EC50: it is the concentration giving half of the maximal effect. The low end stands for greater potency, the high end for weaker potency.

Counter-ions that a name gives are not always drawn. Like-named read-outs stand apart in the source and are kept apart here. Where only a bound is given, the exact number is not on record here.

MCL-1, sequence (Q07820 whole entry): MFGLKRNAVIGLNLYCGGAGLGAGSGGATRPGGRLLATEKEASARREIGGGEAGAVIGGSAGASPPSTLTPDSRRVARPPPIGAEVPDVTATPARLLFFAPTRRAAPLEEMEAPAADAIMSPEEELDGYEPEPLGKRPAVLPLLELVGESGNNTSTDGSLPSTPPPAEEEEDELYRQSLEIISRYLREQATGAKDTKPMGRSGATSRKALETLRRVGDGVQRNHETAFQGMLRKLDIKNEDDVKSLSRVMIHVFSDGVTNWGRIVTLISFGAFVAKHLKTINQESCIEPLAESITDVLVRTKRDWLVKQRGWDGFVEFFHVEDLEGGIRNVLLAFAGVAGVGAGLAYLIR

In the case of `CCS(=O)(=O)N1CCN(c2ccc(N3CCCn4c(C(=O)O)c(CCCOc5cccc6ccccc56)c5cccc(c54)-c4c(C)nn(C)c4C3)cc2)CC1` (single isomer, unassigned; enantiomer 1) [Example 1-109, 7-{4-[4-(Ethylsulfonyl)piperazin-1-yl]phenyl}-9,11-dimethyl-1-(3-(1-naphthyloxy)propyl-4,5,6,7,8,9-hexahydropyrazolo[3′,4′:7,8][1,5]diazecino[9,10,1-hi]indole-2-carboxylic Acid (Enantiomer 1)], the EC50 in data set [1] came to 7.09 µM; in data set [3] (Homo sapiens, SU-DHL10, 3 h) it was 8.86 µM. Further, the IC50 is 4.08e-06 M in data set [2] (Homo sapiens, SU-DHL10, 72 h); 8.14e-06 M in data set [4] (Homo sapiens, OPM-2, 72 h); 4.55e-06 M in [5] (Homo sapiens, SU-DHL-5, 72 h); 8.44e-06 M in [6] (setting [11]); 0.0185 µM in data set [7]; 6.94e-06 M in [8] (Homo sapiens, MV4-11, 72 h). In addition, the IC50 in [9] (setting [12]) was determined as 1.48e-05 M; in data set [10] (Homo sapiens, A2780, 72 h) it was 8.7e-06 M.

For the compound `Cc1c2c(nn1C)CN(C)CCCCn1c(C(=O)O)c(CCCOc3cccc4ccccc34)c3cccc-2c31` (single isomer, unassigned; enantiomer 1) [Example 068, 2,3,14-trimethyl-7-[3-(naphthalen-1-yloxy)propyl]-10,11,12,13,14,15-hexahydro-2H-pyrazolo[3′,4′:8,9][1,6]diazacycloundecino[10,11,1-hi]indole-8-carboxylic Acid (Enantiomer 1)], the EC50 in data set [1] was 1.63 µM; in [3], 11.9 µM. In addition, the IC50 stood at 1.87e-06 M in data set [2]; 9.82e-06 M in data set [4] (Homo sapiens, OPM-2, 72 h); 2.53e-06 M in data set [5]; 2.25e-06 M in data set [6] (setting [13]); 0.00442 µM in data set [7]; 1.69e-05 M in data set [8] (Homo sapiens, MV4-11, 72 h). The IC50 in data set [9] (setting [14]) is 5.02e-06 M; in [10], greater than 3.3e-05 M; in [10] (Homo sapiens, A2780, 72 h), 1.85e-05 M.

Take `CC(C)c1c2c(nn1C)CN(C)CCCn1c(C(=O)O)c(CCCOc3cccc4ccccc34)c3cccc-2c31` (single isomer, unassigned; enantiomer 1) [Example 114, 7,10-dimethyl-1-[3-(naphthalen-1-yloxy)propyl]-11-(propan-2-yl)-4,5,6,7,8,10-hexahydropyrazolo[3′,4′:7,8][1,5]diazecino[9,10,1-hi]indole-2-carboxylic acid (enantiomer 1)]: the EC50 was 8.86 µM in [1] and 17.7 µM in data set [3] (Homo sapiens, SU-DHL10, 3 h). Besides, the IC50 in data set [2] (Homo sapiens, SU-DHL10, 72 h) is 5.31e-06 M; in data set [4] (Homo sapiens, OPM-2, 72 h) it was 1.1e-05 M; in [5] (Homo sapiens, SU-DHL-5, 72 h) it was 3.28e-06 M; in [6] (setting [11]) it was 6.61e-06 M; in [7], 0.00303 µM; in data set [8] (Homo sapiens, MV4-11, 72 h), 4.54e-06 M. Besides, the IC50 in data set [9] (setting [12]) was found to be 8.59e-06 M; in data set [10] (Homo sapiens, A2780, 72 h), 7.06e-06 M.

With `Cn1nc(COc2ccc(N3CCOCC3)cc2)c2c1COCC=CCn1c(C(=O)O)c(CCCOc3cccc4ccccc34)c3cccc-2c31` (single isomer, unassigned; enantiomer 1) [Example 119, (+)-E/Z)-1-methyl-3-{[4-(morpholin-4-yl)phenoxy]methyl}-7-[3-(naphthalen-1-yloxy)propyl]-1,10,13,15-tetrahydropyrazolo[4′,3′:9,10][1,6]oxazacycloundecino[8,7,6-hi]indole-8-carboxylic Acid (Enantiomer 1)], the EC50 in data set [1] (Homo sapiens, SU-DHL-5, 3 h) stood at 19.5 µM; in data set [3] (Homo sapiens, SU-DHL10, 3 h), 22.5 µM. The IC50 in data set [2] (Homo sapiens, SU-DHL10, 72 h) turned out to be 2e-05 M; in data set [4] (Homo sapiens, OPM-2, 72 h) it was 6.62e-06 M; in data set [5] (Homo sapiens, SU-DHL-5, 72 h), 1.35e-05 M; in [6] (setting [11]), 2.85e-05 M; in data set [7], 0.0213 µM; in data set [8] (Homo sapiens, MV4-11, 72 h), 8.87e-06 M. For the same compound, the IC50 in data set [9] (setting [12]) was greater than 3.3e-05 M; in data set [10] (Homo sapiens, A2780, 72 h), 1.21e-05 M.

On to `CCN(CC)S(=O)(=O)N1CCN(c2ccc(OCc3nn(C)c4c3-c3cccc5c(CCCOc6cccc7ccccc67)c(C(=O)O)n(c35)CCCCOC4)cc2)CC1` (single isomer, unassigned; enantiomer 2) [Example 1-5, 3-({4-[4-(diethysulfamoyl)piperazin-1-yl]phenoxy}methyl)-1-methyl-7-[3-(naphthalen-1-yloxy)propyl]-1,10,11,12,13,15-hexahydropyrazolo[4′,3′:9,10][1,6]oxazacycloundecino[8,7,6-hi]indole-8-carboxylic Acid (Enantiomer 2)], for which the EC50 in data set [1] came to 2.52 µM; in [3] it was 2.62 µM. Besides, the IC50 in data set [2] was 1.02e-06 M; in data set [4], 1.13e-06 M; in data set [5] it was 7.67e-07 M; in [6] (setting [13]), 3.2e-06 M; in data set [7], 0.00151 µM; in data set [8] (Homo sapiens, MV4-11, 72 h), 7.2e-07 M. Besides, the IC50 in data set [9] (setting [14]) was determined as 4.77e-06 M; in [10], 6.24e-06 M.

Take `Cc1c2c(nn1C)CN(C)CCCn1c(C(=O)O)c(CCCOc3cccc4ccccc34)c3cccc-2c31` (single isomer, unassigned; enantiomer 2) [Example 1-35, 7,10,11-trimethyl-1-[3-(naphthalen-1-yloxy)propyl]-4,5,6,7,8,10-hexahydropyrazolo[3′,4′:7,8][1,5]diazecino[9,10,1-hi]indole-2-carboxylic Acid-N-ethylethanamine Salt (Enantiomer 2)]: the EC50 in data set [1] is 26.9 µM; in [3], greater than 33 µM. The IC50 in data set [2] is 3.25e-05 M; in data set [4], greater than 3.3e-05 M; in [5] it was 2.56e-05 M; in data set [6] (setting [13]), 2.02e-05 M; in data set [7], 0.11 µM; in data set [8] it was 1.96e-05 M. Besides, the values for the IC50 in data set [9] (setting [14]) and in [10] were 1.18e-05 M and greater than 3.3e-05 M, respectively.

For `COCc1c2c(nn1C)COCCCCn1c(C(=O)O)c(CCCOc3cccc4ccccc34)c3cccc-2c31` (single isomer, unassigned; enantiomer 2) [Example 101, 3-(methoxymethyl)-2-methyl-7-[3-(naphthalen-1-yloxy)propyl]-2,10,11,12,13,15-hexahydropyrazolo[4′,3′:9,10][1,6]oxazacycloundecino[8,7,6-hi]indole-8-carboxylic acid-N-ethylethanamine Salt (Enantiomer 2)], the EC50 in data set [1] worked out at 1.74 µM; in data set [3] it was 3.43 µM. In addition, the IC50 in [2] came out at 4.47e-06 M; in data set [4] (Homo sapiens, OPM-2, 72 h), 4.37e-06 M; in [5], 1.32e-06 M; in data set [6] (setting [13]), 2.03e-06 M; in data set [7] it was 0.00185 µM; in data set [8] (Homo sapiens, MV4-11, 72 h), 1.85e-06 M. Further, the IC50 stood at 4e-06 M in data set [9] (setting [14]) and 2.71e-05 M in data set [10].

As to `Cn1nc(COc2ccc(N3CCOCC3)cc2)c2c1COCC=CCn1c(C(=O)O)c(CCCOc3cccc4ccccc34)c3cccc-2c31` (single isomer, unassigned; enantiomer 2) [Example 120, (−)-(E/Z)-1-methyl-3-{[4-(morpholin-4-yl)phenoxy]methyl}-7-[3-(naphthalen-1-yloxy)propyl]-1,10,13,15-tetrahydropyrazolo[4′,3′:9,10][1,6]oxazacycloundecino[8,7,6-hi]indole-8-carboxylic Acid (Enantiomer 2)], the EC50 in data set [1] worked out at 31.4 µM; in [3], 18.4 µM. Also, the IC50 in data set [2] worked out at 1.4e-05 M; in data set [4], 4.36e-06 M; in [5] it was 1.08e-05 M; in data set [6] (setting [13]), 3.21e-05 M; in data set [7], 0.0272 µM; in data set [8], 1.13e-05 M. Further, the IC50 in [9] (setting [14]) was greater than 3.3e-05 M; in data set [10] it was 1.11e-05 M.
